Results taken from PMC6606608, “Chemical logic of MraY inhibition by antibacterial nucleoside natural products” (Nature Communications, 2019).
Like-named read-outs stand apart in the source and are kept apart here.

Tests used:
[1] = molecular target: T1, MraYAA (phospho-MurNAc-pentapeptide translocase, MraY) (Aquifex aeolicus, UniProt O66465); assay: X-ray crystal structure ([…] Å); UMP-Glo enzyme inhibition IC50; format: biochemical
T1 construct: Codon-optimized His-MBP-PreScission fusion, E. coli C41(DE3), DDM-extracted, tag cleaved; IC50 on MraYAA alone (NB7 only in crystals)
T1 sequence (O66465 1-359): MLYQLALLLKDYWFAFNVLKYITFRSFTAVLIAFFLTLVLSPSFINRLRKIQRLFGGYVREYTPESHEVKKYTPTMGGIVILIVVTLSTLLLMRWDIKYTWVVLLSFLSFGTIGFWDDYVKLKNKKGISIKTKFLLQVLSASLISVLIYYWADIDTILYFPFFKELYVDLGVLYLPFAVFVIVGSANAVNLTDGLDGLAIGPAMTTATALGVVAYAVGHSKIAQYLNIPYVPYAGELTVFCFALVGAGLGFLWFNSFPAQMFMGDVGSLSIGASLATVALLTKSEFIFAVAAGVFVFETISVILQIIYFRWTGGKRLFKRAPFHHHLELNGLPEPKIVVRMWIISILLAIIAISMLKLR

[2] = molecular target: T1, MraYAA (phospho-MurNAc-pentapeptide translocase, MraY); assay: as above; format: biochemical; remark: listed apart in the source

Compound	IC50 [1] [nM]	IC50 [2] [nM]
CSCC[C@H](NC(=O)N[C@@H](Cc1cccc(O)c1)C(=O)O)C(=O)N[C@H](C(=O)N/C=C1/O[C@@H](n2ccc(=O)[nH]c2=O)[C@H](O)[C@@H]1O)[C@H](C)N(C)C(=O)[C@@H](N)Cc1cccc(O)c1 [3′-hydroxymureidomycin A]	52	
CO[C@H]1[C@@H](O)[C@H](n2ccc(=O)[nH]c2=O)O[C@@H]1[C@@H](O[C@H]1OC(C(=O)N[C@H]2CCCCNC2=O)=C[C@H](O)[C@@H]1O)C(N)=O [capuramycin]		185
